Measured values published in ChEMBL document CHEMBL5634158, “From garden to lab: C-3 chemical modifications of tomatidine unveil broad-spectrum ATP synthase inhibitors to combat bacterial resistance” (Eur J Med Chem, 2023).
Values after ≈ are worked out from the molar mass of the structure shown.

Key:
[1] = Inhibition of Staphylococcus aureus ATCC 29213 ATP synthase activity preincubated for 30 mins followed by NADH/ADP addition and measured after 60 mins by luciferin/luciferase luminescence assay
[2] = Inhibition of Escherichia coli ATCC 25922 ATP synthase activity preincubated for 30 mins followed by NADH/ADP addition and measured after 60 mins by luciferin/luciferase luminescence assay
[3] = system: Escherichia coli; assay: Antibacterial activity against Escherichia coli MC4100 harbouring lptD mutant assessed as reduction in bacterial growth by CLSI based broth microdilution method; type: functional
[4] = system: Staphylococcus aureus; assay: Antibacterial activity against Staphylococcus aureus ATCC 29213 assessed as reduction in microbial growth incubated for 20 hrs under aerobic condition by CLSI based broth microdilution method; type: functional
[5] = system: Escherichia coli; assay: Antibacterial activity against Escherichia coli ATCC 25922 assessed as reduction in microbial growth incubated for 20 hrs under aerobic condition by CLSI based broth microdilution method; type: functional
[6] = system: Escherichia coli; assay: Antibacterial activity against Escherichia coli MC4100 assessed as reduction in bacterial growth by CLSI based broth microdilution method; type: functional
[7] = system: Escherichia coli; assay: Antibacterial activity against Escherichia coli MC4100 harbouring acrAB mutant assessed as reduction in bacterial growth by CLSI based broth microdilution method; type: functional
[8] = system: Staphylococcus aureus; assay: Antibacterial activity against Staphylococcus aureus ATCC 29213 hemB SCV assessed as reduction in microbial growth incubated for 20 hrs under aerobic condition by CLSI based broth microdilution method; type: functional
[9] = system: Escherichia coli; assay: Antibacterial activity against Escherichia coli ATCC 25922 assessed as fold decrease in MIC for 20 hrs under aerobic condition by CLSI based broth microdilution method; type: functional
[10] = system: Escherichia coli; assay: Antibacterial activity against antibiotic susceptible Escherichia coli producing extended spectrum beta-lactamase CTX-M-15 assessed as reduction in microbial growth incubated for 20 hrs under aerobic condition by CLSI based broth microdilution method; type: functional
[11] = system: Escherichia coli; assay: Antibacterial activity against antibiotic susceptible /colistin resistant Escherichia coli harboring mcr-1 gene assessed as reduction in microbial growth incubated for 20 hrs under aerobic condition by CLSI based broth microdilution method; type: functional
[12] = system: Escherichia coli; assay: Antibacterial activity against antibiotic resistant Escherichia coli producing extended spectrum beta-lactamase CTX-M-15 assessed as reduction in microbial growth incubated for 20 hrs under aerobic condition by CLSI based broth microdilution method; type: functional
[13] = system: Escherichia coli; assay: microbe, parasite or virus in culture; conditions: 20 h
Description: Antibacterial activity against antibiotic resistant Escherichia coli producing extended spectrum beta-lactamase KPC assessed as reduction in microbial growth incubated for 20 hrs under aerobic condition by CLSI based broth microdilution method

[14] = system: Escherichia coli; assay: Antibacterial activity against antibiotic susceptible Escherichia coli ATCC 25922 assessed as reduction in microbial growth incubated for 20 hrs under aerobic condition by CLSI based broth microdilution method; type: functional
[15] = system: Escherichia coli; assay: Antibacterial activity against NDM1-producing carbapenem/antibiotic resistant Escherichia coli ATCC BAA-2471 assessed as reduction in microbial growth incubated for 20 hrs under aerobic condition by CLSI based broth microdilution method; type: functional
[16] = system: Staphylococcus aureus; assay: Antibacterial activity against antibiotic resistant methicillin resistant Staphylococcus aureus ATCC BAA-41/USA-100 assessed as reduction in microbial growth incubated for 20 hrs under aerobic condition by CLSI based broth microdilution method; type: functional
[17] = system: Staphylococcus aureus; assay: Antibacterial activity against antibiotic susceptible Staphylococcus aureus ATCC 29213 assessed as reduction in microbial growth incubated for 20 hrs under aerobic condition by CLSI based broth microdilution method; type: functional
[18] = system: Staphylococcus aureus; assay: Antibacterial activity against antibiotic resitant/methicillin resistant Staphylococcus aureus ATCC 700699/Mu50 assessed as reduction in microbial growth incubated for 20 hrs under aerobic condition by CLSI based broth microdilution method; type: functional
[19] = system: Staphylococcus aureus; assay: Antibacterial activity against antibiotic susceptible Staphylococcus aureus ATCC 29213 hemB SCV assessed as reduction in microbial growth incubated for 20 hrs under aerobic condition by CLSI based broth microdilution method; type: functional
[20] = system: Escherichia coli; assay: Antibacterial activity against antibiotic susceptible Escherichia coli producing extended spectrum beta-lactamase KPC assessed as reduction in microbial growth incubated for 20 hrs under aerobic condition by CLSI based broth microdilution method; type: functional
[21] = system: Escherichia coli; assay: Antibacterial activity against NDM1-producing carbapenem resistant/antibiotic susceptible Escherichia coli ATCC BAA-2471 assessed as reduction in microbial growth incubated for 20 hrs under aerobic condition by CLSI based broth microdilution method; type: functional, organism-based
[22] = system: Escherichia coli; assay: Antibacterial activity against antibiotic/colistin resistant Escherichia coli harboring mcr-1 gene assessed as reduction in microbial growth incubated for 20 hrs under aerobic condition by CLSI based broth microdilution method; type: functional

Molecule | IC50 [2] [nM] | MIC [3] [µg/mL] | MIC [4] [µg/mL] | MIC [5] [µg/mL] | MIC [6] [µg/mL] | MIC [7] [µg/mL] | MIC [8] [µg/mL] | further results
O=[N+]([O-])c1ccc(Cl)c2nonc12 | 3940 |  |  |  |  |  |  | IC50 [1]: 1700 nM
C[C@H]1CC[C@]2(NC1)O[C@H]1C[C@H]3[C@@H]4CC[C@H]5CC(NCCN)CC[C@]5(C)[C@H]4CC[C@]3(C)[C@H]1[C@@H]2C (stereo partly specified) | 1300 | 0.5 (≈ 1.09 µM) | 8 | 32 | 16 (≈ 35 µM) | 8 (≈ 17.5 µM) | 0.006 | 
C[C@H]1CC[C@]2(NC1)O[C@H]1C[C@H]3[C@@H]4CC[C@H]5CC(NC[C@@H](N)Cc6ccc(Br)cc6)CC[C@]5(C)[C@H]4CC[C@]3(C)[C@H]1[C@@H]2C (stereo partly specified) |  |  | 2 | 8 |  |  | ≤ 0.25 | fold change (FC) [9]: 2
C[C@H]1CC[C@]2(NC1)O[C@H]1C[C@H]3[C@@H]4CC[C@H]5CC(NC[C@@H](N)Cc6c[nH]c7ccccc67)CC[C@]5(C)[C@H]4CC[C@]3(C)[C@H]1[C@@H]2C (mixture of isomers) | 1900 | 2 | 2 | 8 | 16 | 4 |  | 
C[C@H]1CC[C@]2(NC1)O[C@H]1C[C@H]3[C@@H]4CC[C@H]5CC(NC[C@@H](N)Cc6ccc(-c7ccccc7)cc6)CC[C@]5(C)[C@H]4CC[C@]3(C)[C@H]1[C@@H]2C (mixture of isomers) | 3400 | 2 | 2 | 8 | 8 | 8 |  | 
C[C@H]1CC[C@]2(NC1)O[C@H]1C[C@H]3[C@@H]4CC[C@H]5CC(NC[C@@H](N)Cc6ccccc6)CC[C@]5(C)[C@H]4CC[C@]3(C)[C@H]1[C@@H]2C (mixture of isomers) | 1300 | 4 | 4 | 32 | 32 | 8 |  | 
C[C@H]1CC[C@]2(NC1)O[C@H]1C[C@H]3[C@@H]4CC[C@H]5CC(NC[C@@H](N)Cc6ccc(Cl)cc6)CC[C@]5(C)[C@H]4CC[C@]3(C)[C@H]1[C@@H]2C (mixture of isomers) |  |  | 2 | 8 |  |  | ≤ 0.25 | fold change (FC) [9]: 2
C[C@H]1CC[C@]2(NC1)O[C@H]1C[C@H]3[C@@H]4CC[C@H]5CC(NC[C@@H](N)Cc6ccccc6C(F)(F)F)CC[C@]5(C)[C@H]4CC[C@]3(C)[C@H]1[C@@H]2C (mixture of isomers) |  |  | 2 | 32 |  |  | 0.5 | 
C[C@H]1CC[C@]2(NC1)O[C@H]1C[C@H]3[C@@H]4CC[C@H]5CC(NC[C@@H](N)Cc6ccc(I)cc6)CC[C@]5(C)[C@H]4CC[C@]3(C)[C@H]1[C@@H]2C (mixture of isomers) | 1500 | 2 | 2 | 4 | 8 | 4 | ≤ 0.25 | fold change (FC) [9]: 2
C[C@H]1CC[C@]2(NC1)O[C@H]1C[C@H]3[C@@H]4CC[C@H]5CC(NCCN6CCOCC6)CC[C@]5(C)[C@H]4CC[C@]3(C)[C@H]1[C@@H]2C (mixture of isomers) | 6500 | 64 | 64 | > 128 | > 128 | 128 |  | 
C[C@H]1CC[C@]2(NC1)O[C@H]1C[C@H]3[C@@H]4CC[C@H]5CC(NC[C@@H](N)Cc6ccncc6)CC[C@]5(C)[C@H]4CC[C@]3(C)[C@H]1[C@@H]2C (mixture of isomers) | 1500 | 16 | 16 | > 128 | > 128 | 32 |  | 
C[C@H]1CC[C@]2(NC1)O[C@H]1C[C@H]3[C@@H]4CC[C@H]5CC(N[C@@H]6CCNC6)CC[C@]5(C)[C@H]4CC[C@]3(C)[C@H]1[C@@H]2C (mixture of isomers) | 4700 | 32 | 32 | 64 | 64 | 32 |  | 
C[C@H]1CC[C@]2(NC1)O[C@H]1C[C@H]3[C@@H]4CC[C@H]5CC(NC[C@@H](N)Cc6ccc(Cl)cc6Cl)CC[C@]5(C)[C@H]4CC[C@]3(C)[C@H]1[C@@H]2C (mixture of isomers) |  |  | 2 | 8 |  |  | ≤ 0.25 | 
C[C@H]1CC[C@]2(NC1)O[C@H]1C[C@H]3[C@@H]4CC[C@H]5CC(NC[C@@H](N)Cc6cccc(C(F)(F)F)c6)CC[C@]5(C)[C@H]4CC[C@]3(C)[C@H]1[C@@H]2C (mixture of isomers) |  |  | 5 | 8 |  |  | 2 | 
C[C@H]1CC[C@]2(NC1)O[C@H]1C[C@H]3[C@@H]4CC[C@H]5CC(NCCN6CCCC6)CC[C@]5(C)[C@H]4CC[C@]3(C)[C@H]1[C@@H]2C (mixture of isomers) | 900 | 0.5 |  | 64 | 64 | 8 |  | 
C[C@H]1CC[C@]2(NC1)O[C@H]1C[C@H]3[C@@H]4CC[C@H]5CC(NC[C@@H](N)Cc6ccc(C(F)(F)F)cc6)CC[C@]5(C)[C@H]4CC[C@]3(C)[C@H]1[C@@H]2C (mixture of isomers) |  |  | 2 | 8 |  |  | 1 | 
C[C@H]1CC[C@]2(NC1)O[C@H]1C[C@H]3[C@@H]4CC[C@H]5CC(NC[C@@H](N)Cc6ccc7ccccc7c6)CC[C@]5(C)[C@H]4CC[C@]3(C)[C@H]1[C@@H]2C (mixture of isomers) | 2000 | 8 | 1 | 8 | 16 | 4 |  | 
CC(C)(O/N=C(\C(=O)N[C@@H]1C(=O)N2C(C(=O)[O-])=C(C[n+]3ccccc3)CS[C@H]12)c1csc(N)n1)C(=O)O [CEFTAZIDIME] |  |  |  |  |  |  |  | MIC [10]: 1 µg/mL; MIC [11]: 0.25 µg/mL; MIC [12]: > 32 µg/mL; MIC [13]: > 32 µg/mL; MIC [14]: 0.25 µg/mL; MIC [15]: > 32 µg/mL
C[C@@H](O)[C@H]1C(=O)N2C(C(=O)O)=C(S[C@@H]3CN[C@H](C(=O)N(C)C)C3)[C@H](C)[C@H]12 [MEROPENEM] |  |  |  |  |  |  |  | MIC [16]: > 16 µg/mL; MIC [17]: 0.12 µg/mL; MIC [11]: ≤ 0.03 µg/mL; MIC [18]: > 16 µg/mL; MIC [13]: 8 µg/mL (≈ 20.9 µM); MIC [14]: ≤ 0.03 µg/mL; MIC [19]: 0.06 µg/mL; MIC [15]: > 16 µg/mL
Cc1onc(-c2ccccc2)c1C(=O)N[C@@H]1C(=O)N2[C@@H]1SC(C)(C)[C@@H]2C(=O)O [OXACILLIN] |  |  |  |  |  |  |  | MIC [16]: > 128 µg/mL; MIC [17]: 0.24 µg/mL; MIC [18]: > 128 µg/mL; MIC [19]: 0.12 µg/mL
COLISTIN |  |  |  |  |  |  |  | MIC [20]: 0.5 µg/mL; MIC [21]: 1 µg/mL; MIC [14]: 1 µg/mL; MIC [22]: 32 µg/mL
